Assay results reported in US11584769B2, “Diterpene glycosides, compositions and purification methods” (The Coca-Cola Company, priority 2014, dated 2023).

How the values were obtained:
panelists = assay: Sensory evaluation of 1 and 3 (single sip protocol, taste panel); type: in vivo, human; conditions: 400 ppm in water, 4° C.; for Bitter Aftertaste Intensity / Sweet Linter Intensity / Other Intensity / Overall Max Bitterness Intensity / Overall Max Sweetness Intensity / Bitter Intensity (In mouth) / Sweet Intensity (In mouth): mean score; for Bitter Aftertaste Intensity / Sweet Linter Intensity: 1 minute after tasting; for Other Intensity: any aromatic other than sweet and bitter or mouthfeel; for Overall Max Bitterness Intensity / Overall Max Sweetness Intensity: up to 1 minute
Method: Samples were prepared as described in Table 1. All samples were served at 4° C.
Samples were evaluated using a single sip protocol as follows: • Samples were served at approximately 4° C. • Panelists were instructed to take 1 sip of the sample, hold in mouth for 5 seconds, expectorate comfortable with this), and rate the given attributes • A 5 minute break was placed between each sample and panelists were instructed to cleanse their palates with at least 1 bite of unsalted cracker and 2 sips of filtered water • Due to limited sample quantities, panelists were given the following amounts to test: • a 3 vs Reb M: 1.5 mL • 1 vs Reb M: 5 mL • Samples were randomized within each session for each panelist • All samples were presented in replicate in each session Samples were evaluated for: • Sweet taste intensity: maximum level of sweetness in mouth during 5 seconds • Bitter taste intensity: maximum level of bitterness in mouth during 5 seconds • Overall maximum sweet intensity: maximum sweet intensity experienced from the time the sip is taken up to 1 minute • Overall maximum bitter intensity: maximum […] intensity experienced from the time the sip is taken up to 1 minute • Other intensity: Intensity of any aromatic other than sweet and bitter (metallic, plastic, licorice, etc.) or mouthfeel/sensation • Sweet linger intensity: sweet intensity 1 minute after tasting the sample • Bitter aftertaste intensity: bitter intensity 1 minute after tasting the sample Data Analysis. A 3-way ANOVA was used to compare the sweeteners for each attribute, for 1 only, and significance was determined at p<0.05. Fishers's LSD was used to determine significant differences between mean scores.

[1] = Solubility observed when preparing NMR samples (solvent screen); type: physicochemical; conditions: for Dissolution of the sample in 250 μL of CD3OD: ~4.3 mg (4, CD3OD+TMS) or 3.8 mg (6) in 250 μL
Method: Isolation Procedure. Fractions collected during the final pre-concentration step were filtered through a stainless steel sieve and concentrated in vacuo using a Buchi® Rotary Evaporator, Model R-114. The concentrated solution was dried for 48-72 h using the Kinetics Flexi-Dry Personal Freeze Dryer, followed by vacuum oven drying at 37° C. for 24 h to remove residual moisture. MS and MS/MS. MS and MS/MS data were generated with a Waters QTof Micro mass spectrometer equipped with an electrospray ionization source. The sample was analyzed by negative ESI. The sample was diluted to a concentration of 0.1 mg/mL with H2O:MeCN (1:1) and introduced via flow injection for MS data acquisition, tuned for MS/MS and acquired by direct infusion. NMR. […] The ^1H, COSY, HSQC-DEPT and NOESY NMR data were acquired on Bruker Avance 500 MHz instruments with either a 2.5 mm inverse probe or a 5 mm broad band probe. The ^13C and HMBC NMR data were acquired at the Rensselaer Polytechnic Institute using their Bruker Avance 600 MHz instrument with a 5 mm cryo-probe. The ^1H and ^13C NMR spectra were referenced to the TMS resonance at δH 0.00 ppm and CD3OD resonance at 49.0 ppm, respectively. […] The sample was recovered and blown dry under nitrogen or lyophilized between each solvent screen]. Results and Discussion Unless otherwise noted, all solvent ratios are listed as percent by volume (v/v). Primary Purification. Approximately 300 g of Lot #CB-2977-171 was processed using the primary preparative HPLC method described above. […] Fraction 3 (Lot #JAM-D-10-3) contained the target of interest. Secondary Purification. Lot #JAM-D-10-3 (and equivalent lots) was reprocessed with conditions summarized above. […] Tertiary Purification. Fraction Lot #JAM-D-40-2 was reprocessed with conditions summarized above. Fractions with low level m/z 1776 targets were collected as CJP-C-128 (3, 4, 5, 7). These fractions were subsequently pooled to enhance signal strength for additional processing. Quaternary Purification. Fraction Lot #CJP-C-128 (3, 4, 5, 7) (and equivalent lots) were reprocessed with conditions summarized above. Fraction 1, Lot #CJP-C-130(1), was isolated for additional processing. Quinary Purification. Fraction Lot #CJP-C-130(1) (and equivalent lots) were reprocessed with conditions summarized above. Fraction 9, Lot #CJP-C-133(9), was isolated. […] Secondary Purification. Fraction Lot #CJP-C-133(9) was reprocessed with conditions summarized above. Final Batch Preparation. The purified solution was filtered through a stainless steel sieve to remove particulates. The solution was then concentrated by rotary evaporation and lyophilized for about 72 h. The final batch (4.3 mg), was isolated with >99% (AUC, CAD) purity. Mass Spectrometry. […]

[2] = 1 vs Reb M session, 5 mL sip, N=6
[3] = 3 vs Reb M session, 1.5 mL sip, N=3

| SMILES | Overall Max Sweetness compared to Reb M (panelists) | Sweet Intensity in Mouth compared to Reb M (panelists) | Sweet Linger Intensity compared to Reb M (panelists) | Bitter Aftertaste Intensity (panelists; [2]) | Sweet Linter Intensity (panelists; [2]) | Other Intensity (panelists; [2]) | Overall Max Bitterness Intensity (panelists; [2]) | Overall Max Sweetness Intensity (panelists; [2]) | Bitter Intensity (In mouth) (panelists; [2]) | Bitter Aftertaste Intensity (panelists; [3]) | Sweet Linter Intensity (panelists; [3]) | Other Intensity (panelists; [3]) | Overall Max Bitterness Intensity (panelists; [3]) | Overall Max Sweetness Intensity (panelists; [3]) | Bitter Intensity (In mouth) (panelists; [3]) | Sweet Intensity (In mouth) (panelists; [3]) | Dissolution of the sample in 250 μL of CD3OD [1] | Sweet Intensity (In mouth) (panelists; [2]) | Solubility in solvent screen ([1]; pyridine-d5+TMS (~4 mg/170 μL), D2O+TSP (~4 mg/170 μL), DMSO-d6+TMS) | Soluble portion of the sample in CD3OD+TMS ([1]; ~4.3 mg of sample in 250 μL of CD3OD+TMS) [mg/250 μL] |
| --- | --- | --- | --- | --- | --- | --- | --- | --- | --- | --- | --- | --- | --- | --- | --- | --- | --- | --- | --- | --- |
| C=C1C[C@@]23CC[C@H]4[C@@](C)(CCC[C@@]4(C)C(=O)OC4OC(CO)C(O)C(OC5OC(CO)C(O)C(O)C5O)C4OC4OC(CO)C(O)C(O)C4O)[C@@H]2CCC1(OC1OC(CO)C(O)C(OC2OC(CO)C(O)C(O)C2O)C1OC1OC(COC2OC(CO)C(O)C(OC4OC(CO)C(O)C(O)C4O)C2OC2OC(CO)C(O)C(O)C2O)C(O)C(O)C1O)C3 (stereo partly shown) [diterpene glycoside 1] | significantly lower | significantly lower | significantly lower | 0.8 | 0.0 | 1 | 0.8 | 1.1 | 0.7 | – | – | – | – | – | – | – | – | – | – | – |
| C=C1C[C@@]23CC[C@H]4[C@@](C)(CCC[C@@]4(C)C(=O)OC4OC(COC5OC(CO)C(O)C(OC6OC(CO)C(O)C(O)C6O)C5OC5OC(CO)C(O)C(O)C5O)C(O)C(OC5OC(CO)C(O)C(O)C5O)C4OC4OC(CO)C(O)C(O)C4O)[C@@H]2CCC1(OC1OC(CO)C(O)C(OC2OC(CO)C(O)C(O)C2O)C1OC1OC(CO)C(O)C(O)C1O)C3 (stereo partly drawn) [diterpene glycoside 3, (13-[(2-O-β-D-glucopyranosyl-3-O-β-D-glucopyranosyl)-β-D-glucopyranosyl)oxy] ent-kaur-16-en-19-oic acid-[(2-O-β-D-glucopyranosyl-3-O-β-D-glucopyranosyl-6-O-α-D-glucopyranosyl-(2-O-β-D-glucopyranosyl-3-O-β-D-glucopyranosyl)-β-D-glucopyranosyl) ester]] | slightly lower | slightly lower | significantly less | – | – | – | – | – | – | 0.3 | 0.9 | 0.5 | 1.3 | 5.6 | 0.3 | 5.4 | – | – | – | – |
| C=C1C[C@@]23CC[C@H]4[C@@](C)(CCC[C@@]4(C)C(=O)OC4OC(CO)C(O)C(OC5OC(CO)C(O)C(O)C5O)C4OC4OC(COC5OC(CO)C(O)C(OC6OC(CO)C(O)C(O)C6O)C5OC5OC(CO)C(O)C(O)C5O)C(O)C(O)C4O)[C@@H]2CCC1(OC1OC(CO)C(O)C(OC2OC(CO)C(O)C(O)C2O)C1OC1OC(CO)C(O)C(O)C1O)C3 (stereo partly drawn) [diterpene glycoside 6, (13-[(2-O-β-D-glucopyranosyl-3-O-β-D-glucopyranosyl)-β-D-glucopyranosyl)oxy] ent-kaur-16-en-19-oic acid-[(2-O-β-D-glucopyranosyl-(6-O-α-D-glucopyranosyl-(2-O-β-D-glucopyranosyl-3-O-β-D-glucopyranosyl)-3-O-β-D-glucopyranosyl)-β-D-glucopyranosyl) ester]] | – | – | – | – | – | – | – | – | – | – | – | – | – | – | – | – | did not dissolve completely | – | – | – |
| C=C1C[C@@]23CC[C@H]4[C@@](C)(CCC[C@@]4(C)C(=O)O[C@@H]4O[C@H](CO)[C@@H](O)[C@H](O[C@@H]5O[C@H](CO)[C@@H](O)[C@H](O)[C@H]5O)[C@H]4O[C@@H]4O[C@H](CO)[C@@H](O)[C@H](O)[C@H]4O)[C@@H]2CC[C@]1(O[C@@H]1O[C@H](CO)[C@@H](O)[C@H](O[C@@H]2O[C@H](CO)[C@@H](O)[C@H](O)[C@H]2O)[C@H]1O[C@@H]1O[C@H](CO)[C@@H](O)[C@H](O)[C@H]1O)C3 [Reb M, rebaudioside M, reference compound] | – | – | – | 0.5 | 3.6 | 0.8 | 0.8 | 8.4 | 0.7 | 0.3 | 2.5 | 0.3 | 1.4 | 6.3 | 0.4 | 7.4 | – | 7.8 | – | – |
| C=C1C[C@@]23CC[C@H]4[C@@](C)(CCC[C@@]4(C)C(=O)OC4OC(CO)C(O)C(OC5OC(CO)C(O)C(O)C5O)C4OC4OC(CO)C(O)C(OC5OC(CO)C(O)C(OC6OC(CO)C(O)C(O)C6O)C5OC5OC(CO)C(O)C(O)C5O)C4O)[C@@H]2CCC1(OC1OC(CO)C(O)C(OC2OC(CO)C(O)C(O)C2O)C1OC1OC(CO)C(O)C(O)C1O)C3 (stereo partly shown) [diterpene glycoside 4] | – | – | – | – | – | – | – | – | – | – | – | – | – | – | – | – | did not dissolve readily | – | very poor solubility | ~1.5 |
